Laboratory results published in patent US20260232767A1, “INTERLEUKIN-23 RECEPTOR ANTAGONIST PEPTIDES FOR USE IN THE TREATMENT OF PSORIASIS” (Janssen Pharmaceutica NV, priority 2023, published 2026).

Test system: subjects with moderate-to-severe plaque psoriasis
Test: Hematology and chemistry laboratory values by CTCAE grade
Assay type: in vivo, human
Conditions: through Week 56
From the text: The proportion of participants who discontinued study intervention due to one or more AEs was low (n=4). All events were singular in nature with no apparent dose-dependent increase (Table 48 and Table 52). The number of participants with abnormal hematology and chemistry laboratory values with CTCAE toxicity grade≥3 were low through the end of the study (Table 43 through Table 46). There was no apparent dose-dependent increase in laboratory abnormality occurrences.

CC(=O)NCCCC[C@@H]1NC(=O)[C@H](Cc2c[nH]c3c(C)cccc23)NC(=O)[C@H]([C@@H](C)O)NC(=O)[C@H](CC(N)=O)NC(=O)[C@@H](NC(C)=O)C(C)(C)SSC(C)(C)[C@@H](C(=O)N[C@@H](Cc2ccc(OCCN)cc2)C(=O)N[C@@H](Cc2ccc3ccccc3c2)C(=O)NC2(C(=O)N[C@@H](CCC(=O)O)C(=O)N[C@@H](CC(N)=O)C(=O)N[C@@H](Cc3cccnc3)C(=O)N(C)CC(N)=O)CCOCC2)NC1=O [IL-23 receptor antagonist peptide, Ac-[Pen]*-N-T-[W(7-Me)]-[Lys(Ac)]-[Pen]*-Phe[4-(2-aminoethoxy)]-[2-Nal]-[THP]-E-N-[3-Pal]-Sarc-NH2 (*[Pen]-[Pen]* formdisulfidebond)]
5: Potassium (increased): Subjects with Grade 1 (100 mg BID) | Potassium (increased): Subjects with postbaseline maximum toxicity grade >0 (100 mg BID) | Gamma Glutamyl Transferase (increased): Subjects with Grade 1 (100 mg QD) | Gamma Glutamyl Transferase (increased): Subjects with postbaseline maximum toxicity grade >0 (100 mg QD) | Triglycerides (increased): Subjects with postbaseline maximum toxicity grade >0 (100 mg QD) | WBC (×10^9/L) (decreased): subjects with postbaseline maximum toxicity grade >0 (100 mg QD)
9: Aspartate Aminotransferase (increased): Subjects with Grade 1 (100 mg QD)
12: Alanine Aminotransferase (increased): Subjects with Grade 1 (100 mg QD)
10: Aspartate Aminotransferase (increased): Subjects with postbaseline maximum toxicity grade >0 (100 mg QD)
0: Creatinine (increased): Subjects with Grade 3 (100 mg BID) | Creatinine (increased): Subjects with Grade 4 (100 mg BID) | Gamma Glutamyl Transferase (increased): Subjects with Grade 2 (100 mg BID) | Gamma Glutamyl Transferase (increased): Subjects with Grade 3 (100 mg BID) | Gamma Glutamyl Transferase (increased): Subjects with Grade 4 (100 mg BID) | Glucose (decreased): Subjects with Grade 2 (100 mg BID) | Glucose (decreased): Subjects with Grade 3 (100 mg BID) | Glucose (decreased): Subjects with Grade 4 (100 mg BID) | Hemoglobin (g/L) (decreased): subjects with Grade 2 (100 mg BID) | Hemoglobin (g/L) (decreased): subjects with Grade 3 (100 mg BID) | Hemoglobin (g/L) (decreased): subjects with Grade 4 (100 mg BID) | Hemoglobin (g/L) (increased): subjects with Grade 2 (100 mg BID) | Hemoglobin (g/L) (increased): subjects with Grade 3 (100 mg BID) | Hemoglobin (g/L) (increased): subjects with Grade 4 (100 mg BID) | Lymphocytes (×10^9/L) (decreased): subjects with Grade 2 (100 mg BID) | Lymphocytes (×10^9/L) (decreased): subjects with Grade 3 (100 mg BID) | Lymphocytes (×10^9/L) (decreased): subjects with Grade 4 (100 mg BID) | Lymphocytes (×10^9/L) (increased): subjects with Grade 1 (100 mg BID) | Lymphocytes (×10^9/L) (increased): subjects with Grade 2 (100 mg BID) | Lymphocytes (×10^9/L) (increased): subjects with Grade 3 (100 mg BID) | Lymphocytes (×10^9/L) (increased): subjects with Grade 4 (100 mg BID) | Lymphocytes (×10^9/L) (increased): subjects with postbaseline maximum toxicity grade >0 (100 mg BID) | Magnesium (decreased): Subjects with Grade 1 (100 mg BID) | Magnesium (decreased): Subjects with Grade 2 (100 mg BID) | Magnesium (decreased): Subjects with Grade 3 (100 mg BID) | Magnesium (decreased): Subjects with Grade 4 (100 mg BID) | Magnesium (decreased): Subjects with postbaseline maximum toxicity grade >0 (100 mg BID) | Magnesium (increased): Subjects with Grade 2 (100 mg BID) | Magnesium (increased): Subjects with Grade 3 (100 mg BID) | Magnesium (increased): Subjects with Grade 4 (100 mg BID) | Neutrophils (×10^9/L) (decreased): subjects with Grade 3 (100 mg BID) | Neutrophils (×10^9/L) (decreased): subjects with Grade 4 (100 mg BID) | Platelets (×10^9/L) (decreased): subjects with Grade 2 (100 mg BID) | Platelets (×10^9/L) (decreased): subjects with Grade 3 (100 mg BID) | Platelets (×10^9/L) (decreased): subjects with Grade 4 (100 mg BID) | Potassium (decreased): Subjects with Grade 1 (100 mg BID) | Potassium (decreased): Subjects with Grade 2 (100 mg BID) | Potassium (decreased): Subjects with Grade 3 (100 mg BID) | Potassium (decreased): Subjects with Grade 4 (100 mg BID) | Potassium (decreased): Subjects with postbaseline maximum toxicity grade >0 (100 mg BID) | Potassium (increased): Subjects with Grade 2 (100 mg BID) | Potassium (increased): Subjects with Grade 3 (100 mg BID) | Potassium (increased): Subjects with Grade 4 (100 mg BID) | Sodium (decreased): Subjects with Grade 1 (100 mg BID) | Sodium (decreased): Subjects with Grade 2 (100 mg BID) | Sodium (decreased): Subjects with Grade 3 (100 mg BID) | Sodium (decreased): Subjects with Grade 4 (100 mg BID) | Sodium (decreased): Subjects with postbaseline maximum toxicity grade >0 (100 mg BID) | Sodium (increased): Subjects with Grade 2 (100 mg BID) | Sodium (increased): Subjects with Grade 3 (100 mg BID) | Sodium (increased): Subjects with Grade 4 (100 mg BID) | Total Bilirubin (increased): Subjects with Grade 2 (100 mg BID) | Total Bilirubin (increased): Subjects with Grade 3 (100 mg BID) | Total Bilirubin (increased): Subjects with Grade 4 (100 mg BID) | Triglycerides (increased): Subjects with Grade 4 (100 mg BID) | WBC (×10^9/L) (decreased): subjects with Grade 2 (100 mg BID) | WBC (×10^9/L) (decreased): subjects with Grade 3 (100 mg BID) | WBC (×10^9/L) (decreased): subjects with Grade 4 (100 mg BID) | WBC (×10^9/L) (increased): subjects with Grade 1 (100 mg BID) | WBC (×10^9/L) (increased): subjects with Grade 2 (100 mg BID) | WBC (×10^9/L) (increased): subjects with Grade 3 (100 mg BID) | WBC (×10^9/L) (increased): subjects with Grade 4 (100 mg BID) | WBC (×10^9/L) (increased): subjects with postbaseline maximum toxicity grade >0 (100 mg BID) | Alanine Aminotransferase (increased): Subjects with Grade 3 (100 mg QD) | Alanine Aminotransferase (increased): Subjects with Grade 4 (100 mg QD) | Albumin (decreased): Subjects with Grade 1 (100 mg QD) | Albumin (decreased): Subjects with Grade 2 (100 mg QD) | Albumin (decreased): Subjects with Grade 3 (100 mg QD) | Albumin (decreased): Subjects with Grade 4 (100 mg QD) | Albumin (decreased): Subjects with postbaseline maximum toxicity grade >0 (100 mg QD) | Alkaline Phosphatase (increased): Subjects with Grade 2 (100 mg QD) | Alkaline Phosphatase (increased): Subjects with Grade 3 (100 mg QD) | Alkaline Phosphatase (increased): Subjects with Grade 4 (100 mg QD) | Aspartate Aminotransferase (increased): Subjects with Grade 3 (100 mg QD) | Aspartate Aminotransferase (increased): Subjects with Grade 4 (100 mg QD) | Calcium corrected (decreased): Subjects with Grade 2 (100 mg QD) | Calcium corrected (decreased): Subjects with Grade 3 (100 mg QD) | Calcium corrected (decreased): Subjects with Grade 4 (100 mg QD) | Calcium corrected (increased): Subjects with Grade 2 (100 mg QD) | Calcium corrected (increased): Subjects with Grade 3 (100 mg QD) | Calcium corrected (increased): Subjects with Grade 4 (100 mg QD) | Cholesterol (increased): Subjects with Grade 1 (100 mg QD) | Cholesterol (increased): Subjects with Grade 3 (100 mg QD) | Cholesterol (increased): Subjects with Grade 4 (100 mg QD) | Creatine Kinase (increased): Subjects with Grade 2 (100 mg QD) | Creatine Kinase (increased): Subjects with Grade 3 (100 mg QD) | Creatinine (increased): Subjects with Grade 2 (100 mg QD) | Creatinine (increased): Subjects with Grade 3 (100 mg QD) | Creatinine (increased): Subjects with Grade 4 (100 mg QD) | Gamma Glutamyl Transferase (increased): Subjects with Grade 2 (100 mg QD) | Gamma Glutamyl Transferase (increased): Subjects with Grade 3 (100 mg QD) | Gamma Glutamyl Transferase (increased): Subjects with Grade 4 (100 mg QD) | Glucose (decreased): Subjects with Grade 3 (100 mg QD) | Glucose (decreased): Subjects with Grade 4 (100 mg QD) | Hemoglobin (g/L) (decreased): subjects with Grade 2 (100 mg QD) | Hemoglobin (g/L) (decreased): subjects with Grade 3 (100 mg QD) | Hemoglobin (g/L) (decreased): subjects with Grade 4 (100 mg QD) | Hemoglobin (g/L) (increased): subjects with Grade 1 (100 mg QD) | Hemoglobin (g/L) (increased): subjects with Grade 2 (100 mg QD) | Hemoglobin (g/L) (increased): subjects with Grade 3 (100 mg QD) | Hemoglobin (g/L) (increased): subjects with Grade 4 (100 mg QD) | Hemoglobin (g/L) (increased): subjects with postbaseline maximum toxicity grade >0 (100 mg QD) | Lymphocytes (×10^9/L) (decreased): subjects with Grade 3 (100 mg QD) | Lymphocytes (×10^9/L) (decreased): subjects with Grade 4 (100 mg QD) | Lymphocytes (×10^9/L) (increased): subjects with Grade 1 (100 mg QD) | Lymphocytes (×10^9/L) (increased): subjects with Grade 3 (100 mg QD) | Lymphocytes (×10^9/L) (increased): subjects with Grade 4 (100 mg QD) | Magnesium (decreased): Subjects with Grade 2 (100 mg QD) | Magnesium (decreased): Subjects with Grade 3 (100 mg QD) | Magnesium (decreased): Subjects with Grade 4 (100 mg QD) | Magnesium (increased): Subjects with Grade 2 (100 mg QD) | Magnesium (increased): Subjects with Grade 3 (100 mg QD) | Magnesium (increased): Subjects with Grade 4 (100 mg QD) | Neutrophils (×10^9/L) (decreased): subjects with Grade 3 (100 mg QD) | Neutrophils (×10^9/L) (decreased): subjects with Grade 4 (100 mg QD) | Platelets (×10^9/L) (decreased): subjects with Grade 2 (100 mg QD) | Platelets (×10^9/L) (decreased): subjects with Grade 3 (100 mg QD) | Platelets (×10^9/L) (decreased): subjects with Grade 4 (100 mg QD) | Potassium (decreased): Subjects with Grade 1 (100 mg QD) | Potassium (decreased): Subjects with Grade 3 (100 mg QD) | Potassium (decreased): Subjects with Grade 4 (100 mg QD) | Potassium (increased): Subjects with Grade 1 (100 mg QD) | Potassium (increased): Subjects with Grade 3 (100 mg QD) | Potassium (increased): Subjects with Grade 4 (100 mg QD) | Sodium (decreased): Subjects with Grade 1 (100 mg QD) | Sodium (decreased): Subjects with Grade 2 (100 mg QD) | Sodium (decreased): Subjects with Grade 3 (100 mg QD) | Sodium (decreased): Subjects with Grade 4 (100 mg QD) | Sodium (decreased): Subjects with postbaseline maximum toxicity grade >0 (100 mg QD) | Sodium (increased): Subjects with Grade 2 (100 mg QD) | Sodium (increased): Subjects with Grade 3 (100 mg QD) | Sodium (increased): Subjects with Grade 4 (100 mg QD) | Total Bilirubin (increased): Subjects with Grade 2 (100 mg QD) | Total Bilirubin (increased): Subjects with Grade 3 (100 mg QD) | Total Bilirubin (increased): Subjects with Grade 4 (100 mg QD) | Triglycerides (increased): Subjects with Grade 3 (100 mg QD) | Triglycerides (increased): Subjects with Grade 4 (100 mg QD) | WBC (×10^9/L) (decreased): subjects with Grade 3 (100 mg QD) | WBC (×10^9/L) (decreased): subjects with Grade 4 (100 mg QD) | WBC (×10^9/L) (increased): subjects with Grade 1 (100 mg QD)
7: Total Bilirubin (increased): Subjects with Grade 1 (100 mg QD) | Total Bilirubin (increased): Subjects with postbaseline maximum toxicity grade >0 (100 mg QD)
